Values of other authors, collected in patent US20100209363A1, “PERSONAL CLEANSING COMPOSITION INCLUDING A STRUCTURED SURFACTANT SYSTEM AND A SUN PROTECTION FACTOR COMPOSITION” (The Dial Corporation, priority 2009, published 2010).

Conditions: in capric triglyceride

Row | miscibility with capric triglyceride | concentration up to which miscible with capric triglyceride | Compound
1 | miscible | – | CCCCC(CC)COC(=O)C(C#N)=C(c1ccccc1)c1ccccc1 (stereo not drawn) [octocrylene, 2-ethylhexyl 2-cyano-3,3-diphenylacrylate]
2 | miscible | up to 16 wt. % | COc1ccc(C(=O)CC(=O)c2ccc(C(C)(C)C)cc2)cc1 [avobenzone, 4-tert-butyl-4′-methoxydibenzoylmethane]
